A short description of this data set: in vitro. Conditions: human, hela cells, % viability.

`NCc1ccc(-c2nc3ccccc3[nH]2)nc1` [CBK024396C]: the viability at 28.5 h, 10 µM was 87.7%.

Turning to `Cn1ccnc1C(NC(=O)c1cccnc1)c1ccc(F)c(F)c1` (centres unmarked) [CBK283807], the viability at 28.5 h, 10 µM worked out at 100%.

As for `CCCOC1CCCN(S(=O)(=O)c2cnc3ccsc3c2)C1` (centres unmarked) [CBK306367], the viability at 28.5 h, 10 µM turned out to be 75.5%.

`NNc1ccc(/C=C/c2ccc(NN)cc2S(=O)(=O)O)c(S(=O)(=O)O)c1` [CBK278163N]: the viability at 28.5 h, 10 µM is 91.1%.

For `CCCC(=O)N1CCCC(c2nnc(-c3cccs3)o2)C1` (centres unmarked) [CBK283057], the viability at 28.5 h, 10 µM is 83.6%.

For `COc1cc(C2C3=C(CC(C)(C)CC3=O)Nc3ncnn32)ccc1OCC(=O)N1CCOCC1` (centres unmarked) [CBK268551], the viability at 28.5 h, 10 µM came out at 102%.

`Cc1ccc(F)c(CN2CCN(CCO)[C@@H]3CS(=O)(=O)C[C@@H]32)c1` [CBK307699]: the viability at 28.5 h, 10 µM stood at 93.6%.

Regarding `Cc1cc(C)n(C)c(=O)c1C(=O)NCCCc1ccc(Cl)cc1` [CBK281566], the viability at 28.5 h, 10 µM was determined as 88.2%.

Turning to `c1coc(-c2cn3ccnc3c(NCCc3ccncc3)n2)c1` [CBK037333], the viability at 28.5 h, 10 µM was 93.5%.

Turning to `Cc1cc2ccccc2n2c(SCC(=O)NCCc3ccccc3)nnc12` [CBK265682], the viability at 28.5 h, 10 µM is 111%.

For the compound `CC1(C)C(CC(=O)NC2CCCCC2)CC1C(=O)NC1CCCCC1` (centres unmarked) [CBK009260], the viability at 28.5 h, 10 µM worked out at 98.8%.

For the compound `O=c1[nH]c(=O)n([C@H]2C[C@H](O)[C@@H](CO)O2)cc1I` [CBK200650], the viability at 28.5 h, 10 µM stood at 96.5%.

On to `CN(C)CCCOc1nccnc1N1CCCC1` [CBK113427], for which the viability at 28.5 h, 10 µM was found to be 89.6%.

As to `Cc1cc(Cl)c(OCCn2c3ccccc3c3ccccc32)c(Br)c1` [CBK264826], the viability at 28.5 h, 10 µM worked out at 92.2%.

On to `CC(C)c1csc(CNC(=O)NC2CCCN(c3ccn(C)n3)C2=O)n1` (centres unmarked) [CBK304447], for which the viability at 28.5 h, 10 µM worked out at 83.6%.

As to `NS(=O)(=O)c1ccccc1Sc1ccccc1` [CBK020524], the viability at 28.5 h, 10 µM is 89%.

Turning to `Cc1cc(COc2ccnc(N3CCCN(CCCO)CC3)n2)no1` [CBK083917], the viability at 28.5 h, 10 µM turned out to be 98.4%.

With `C[C@@H](c1ccccc1)n1c(=O)[nH]c2ncc(-c3cccc4ncccc34)nc21` [CBK064394], the viability at 28.5 h, 10 µM is 116%.

Turning to `CN1CCN(C(=O)CNS(=O)(=O)c2ccc3ccccc3c2)CC1` [CBK042205], the viability at 28.5 h, 10 µM came to 99.3%.

For `COc1ccc(N2C(=O)CC(Nc3cc(C(=O)O)ccc3C)C2=O)c(OC)c1` (centres unmarked) [CBK296650], the viability at 28.5 h, 10 µM was found to be 114%.

For the compound `CCOC(=O)N1CCC(NC(=O)c2cnn3c(C)c(Cc4ccccc4)c(C)nc23)CC1` [CBK160293], the viability at 28.5 h, 10 µM came to 90.7%.

Turning to `Cc1ccc(S(=O)(=O)N(CC(=O)O)c2ccc(Br)cc2)cc1` [CBK287125], the viability at 28.5 h, 10 µM worked out at 95.3%.

Regarding `CC1CCC(C(N)=O)CN1C(=O)c1cncc(Br)c1` (centres unmarked) [CBK305773], the viability at 28.5 h, 10 µM came to 96.3%.

Turning to `COc1ccc(OCC(=O)Nc2ccc3oc(-c4ccc(OC)c(Br)c4)nc3c2)cc1` [CBK263913], the viability at 28.5 h, 10 µM stood at 99.4%.

In the case of `O=c1c2c(nc(NCCO)n1-c1ccccc1)-c1ccccc1CC21CCCCC1` [CBK262589], the viability at 28.5 h, 10 µM came to 96.4%.

In the case of `CON=Cc1c[nH]c2ccccc12` [CBK168628], the viability at 28.5 h, 10 µM came out at 93.7%.

Regarding `Cc1ccc(C(=O)O)cc1NS(=O)(=O)c1ccc2c(c1)OCCO2` [CBK297497], the viability at 28.5 h, 10 µM came to 90.7%.

For the compound `O=C(NCc1cccnc1)N1CCN(c2ccccc2)CC1` [CBK155178], the viability at 28.5 h, 10 µM turned out to be 98.2%.

As for `CCc1nc2ccccc2n1CC(=O)N(CCC#N)Cc1cccnc1` [CBK304892], the viability at 28.5 h, 10 µM was 87.7%.

With `COC(=O)/C=C/c1cn(C2OC(CO)C(O)C2O)c(=O)[nH]c1=O` (centres unmarked) [CBK201339], the viability at 28.5 h, 10 µM turned out to be 106%.

With `CS(=O)(=O)N(CC(=O)Nc1ccccc1C(=O)N1CCCC1)c1cc(Cl)c(Cl)cc1Cl` [CBK268826], the viability at 28.5 h, 10 µM was 106%.

For the compound `COc1ccc(/C=C(/NC(=O)c2cccc(Cl)c2)C(=O)Nc2ccccc2)cc1` [CBK263342], the viability at 28.5 h, 10 µM is 107%.

Turning to `Cc1cc(-c2cn3cc(C(=O)N4CCCC4)nc3c(=O)n2C)c(C)o1` [CBK307300], the viability at 28.5 h, 10 µM is 83.3%.

Consider `COCCn1c(=O)n(Cc2ccccc2)c2cccnc21` [CBK283964], for which the viability at 28.5 h, 10 µM worked out at 91%.

Take `Cn1ccc(N2CCCC(NC(=O)c3scnc3C(C)(C)C)C2=O)n1` (centres unmarked) [CBK305453]: the viability at 28.5 h, 10 µM is 94.9%.

As for `CC(=O)NC(CCCN=C(N)N)C(=O)O` (centres unmarked) [CBK218726], the viability at 28.5 h, 10 µM was 107%.

With `O=C(CSC1=NC(=O)C(c2ccccc2)C(=O)N1)NC1CCCCC1` (centres unmarked) [CBK263804], the viability at 28.5 h, 10 µM came out at 103%.

Turning to `Cc1nn(-c2ccccc2)c2sc(C(=O)N3CCN(C(=O)c4ccccc4)CC3)cc12` [CBK297554], the viability at 28.5 h, 10 µM was 96.1%.

`COCC(=O)N1CCCC(c2nc(C)n3c(C)csc23)C1` (centres unmarked) [CBK285214]: the viability at 28.5 h, 10 µM worked out at 98.7%.

With `CC(=O)[C@H]1C[C@@H](CC(=O)N2CCC(C(C)=O)(c3ccccc3)CC2)C1(C)C` [CBK091323], under “bulk resorufin, single well”, the viability at 28.5 h, 10 µM was 109%.

As to `COc1ccc(-c2cc3ccc(OC(C)C(=O)O)cc3oc2=O)cc1` (centres unmarked) [CBK267947], the viability at 28.5 h, 10 µM was 101%.

As for `COc1ccccc1-c1nn2c(Cn3cnc4ccccc43)nnc2s1` [CBK268218], the viability at 28.5 h, 10 µM worked out at 93%.

Consider `CCc1nc(CC(=O)NC(c2ccc(F)cc2)C2CCCO2)cs1` (centres unmarked) [CBK306336], for which the viability at 28.5 h, 10 µM was found to be 117%.

As for `CN1CCCN(c2cncc(-c3cccnc3)n2)CC1` [CBK037215], the viability at 28.5 h, 10 µM is 92.9%.

Regarding `CC(C)N1CCC(=NNC(=O)C(O)c2ccccc2)CC1` (centres unmarked) [CBK019361], the viability at 28.5 h, 10 µM came to 110%.

For `CC(C)c1nc(CCNC(=O)C2(Cn3ccnc3)CC2)no1` [CBK306828], the viability at 28.5 h, 10 µM was determined as 86.2%.

As for `Cc1noc(C)c1C(=O)Nc1sc2c(c1C(=O)NCc1ccco1)CCCCCC2` [CBK268112], the viability at 28.5 h, 10 µM is 99.3%.

For the compound `CCn1ncc(CN[C@@H]2CCC(=O)N[C@H]2c2cc(F)cc(F)c2)c1C` [CBK282914], the viability at 28.5 h, 10 µM amounted to 98.3%.

Take `CCN(CC)c1c(C)nc2ccc(C(=O)NCc3ccc(N(C)C)cc3)cn12` [CBK145961]: the viability at 28.5 h, 10 µM stood at 92.7%.

On to `C=CCS(=O)(=O)N1CCC(c2nc(C)n3c(C)csc23)CC1` [CBK285251], for which the viability at 28.5 h, 10 µM is 80%.

For the compound `CCOC(=O)N1CCN(S(=O)(=O)c2ccc3[nH]c(=O)oc3c2)CC1` [CBK304679], the viability at 28.5 h, 10 µM was found to be 105%.

Regarding `CCc1nc(-c2ccc(N(C)C)nc2)nn1C` [CBK307381], the viability at 28.5 h, 10 µM was found to be 106%.

With `COc1ccc2[nH]cc(CC3CCNCC3)c2c1` [CBK012779], the viability at 28.5 h, 10 µM was found to be 104%.

Consider `CCN1C(=O)COC[C@@H]1[C@H](O)c1ccc(NC(=O)Cc2ccc(OC)cc2)cc1` [CBK289676], for which the viability at 28.5 h, 10 µM is 90.2%.

For the compound `S=C(Nc1ccccc1)N(Cc1ccccc1)Cc1ccncc1` [CBK267991], the viability at 28.5 h, 10 µM stood at 96.8%.

`CCOC(=O)c1ccoc1CN1CCCC1c1ccsc1` (centres unmarked) [CBK304878]: the viability at 28.5 h, 10 µM is 86.7%.

Turning to `COc1ccccc1OCc1ccc(Cl)s1` [CBK002782], the viability at 28.5 h, 10 µM is 82.7%.

Regarding `O=S(=O)(O)c1cc(S(=O)(=O)O)c2cc(O)c(S(=O)(=O)O)cc2c1` [CBK278319N], the viability at 28.5 h, 10 µM is 96.7%.

For `Cc1cc(C(=O)Nc2ccccc2C(=O)O)ccc1NC(=O)CC(C)C` [CBK263616], the viability at 28.5 h, 10 µM was 101%.

For `CCc1nn(CC(=O)NC(C)(C)C)c(=O)c2cc3sc(C)cc3n12` [CBK284124], the viability at 28.5 h, 10 µM came out at 83.9%.

With `Cc1ccc(S(=O)(=O)Nc2c(C(=O)O)[nH]c3ccccc23)cc1` [CBK049880], the viability at 28.5 h, 10 µM stood at 72.6%.

Consider `Oc1ccccc1/C=N/c1ccc(Cc2ccc(/N=C/c3ccccc3O)c(O)c2)cc1O` [CBK261156], for which the viability at 28.5 h, 10 µM turned out to be 93.4%.

For the compound `CSc1ncc(Cl)c(C(=O)NCCc2ccc(S(N)(=O)=O)cc2)n1` [CBK268679], the viability at 28.5 h, 10 µM stood at 104%.

Turning to `O=C1NCCCCC1N1CCS(=O)(=O)CC1` (centres unmarked) [CBK017083], the viability at 28.5 h, 10 µM was determined as 99.2%.

Consider `COc1ccc(C(=O)Nc2cccc(-c3nc4ccccc4[nH]3)c2)c(OC)c1` [CBK072662], for which the viability at 28.5 h, 10 µM is 95.4%.

On to `Cc1csc2c(C3CCN(C(=O)C4CC4)CC3)nc(C)n12` [CBK285241], for which the viability at 28.5 h, 10 µM is 88.8%.

For the compound `COc1ccc2[nH]c3c(c2c1)CCN(C=O)C31CCN(Cc2cccc(Cl)c2)C1` (centres unmarked) [CBK040376], the viability at 28.5 h, 10 µM turned out to be 97.3%.

As to `Cc1ccc(Cn2nc(C(=O)Nc3nc4ccccc4s3)c3ccccc32)cc1` [CBK047837], where the note is “bulk resorufin, single well”, the viability at 28.5 h, 10 µM came out at 92.4%.

As for `CCOC(=O)N/N=C1\CCCCC1CC` (centres unmarked) [CBK016112], the viability at 28.5 h, 10 µM came to 84.7%.

For `CC(=O)Nc1cccc(CN2CCCC2CN2CCCC2CO)c1` (centres unmarked) [CBK305163], the viability at 28.5 h, 10 µM came to 98.9%.

For the compound `COc1ccc(Oc2cncc(OC3CCN(CC(N)=O)C3)n2)cc1OC` (centres unmarked) [CBK084402], the viability at 28.5 h, 10 µM was 93.8%.

On to `Cc1nccn1CCNC(=O)CCc1nc2ccccc2n1C` [CBK281978], for which the viability at 28.5 h, 10 µM was determined as 95.3%.

Take `Cc1cc2c(s1)c1cnn(CC(=O)NC(C)C)c(=O)c1n2C` [CBK284155]: the viability at 28.5 h, 10 µM turned out to be 79.7%.

Regarding `CC(C)C1C2CCCCC2=NN1C(=O)/C=C/C(=O)O` (centres unmarked) [CBK286862], the viability at 28.5 h, 10 µM turned out to be 93.1%.

For the compound `O=C1C[C@@H]2CCN(C(=O)NC3CCCCC3)C[C@@H]2CCN1CCN1CCNC1=O` [CBK288796], the viability at 28.5 h, 10 µM was 96.4%.

Regarding `Cc1ccc(NS(=O)(=O)c2ccc(OC(F)(F)F)cc2)c(CO)c1` [CBK043267], the viability at 28.5 h, 10 µM was determined as 86.8%.

As for `CC1=NNC(=O)C1CCC(=O)N/N=C/C(Br)=C/c1ccccc1` (centres unmarked) [CBK262929], the viability at 28.5 h, 10 µM worked out at 100%.

For `Fc1ccc(-c2ccc3c(c2)COC2(CCNCC2)O3)cc1Cl` [CBK060960], for the setting “bulk resorufin, single well”, the viability at 28.5 h, 10 µM was 89.8%.

With `CC1CCC(C(C)C)C(OC(=O)C(C)O)C1` (centres unmarked) [CBK067073], the viability at 28.5 h, 10 µM was found to be 81.6%.

Turning to `COC(=O)c1cn([C@H]2CO[C@H]3[C@@H]2OC[C@@H]3NC(=O)NC2CCCCC2)nn1` [CBK289499], the viability at 28.5 h, 10 µM came out at 82.4%.

These data come from paper PMC12040169 (PLOS Biology, 2025).
